Experimental data: the NIST ThermoML archive (doi:10.1016/j.tca.2010.01.023)
± gives the expanded uncertainty stated by the source.

Details: Crystal; DTA

- Normal melting temperature: 65.0 ± 1 °C
Structure (SMILES): CCCCn1cc[n+](C)c1.[Cl-] [1-butyl-3-methylimidazolium chloride]
